Results from patent US12662489B2 (Sitryx Therapeutics Limited, priority 2023, dated 2026).

Assays:
human CD4+ T cells = assay: Human CD4+ T-cell proliferation assay (CFSE, CD3/28 beads); details: read-out: Proliferation IC50
[1] = biological target: T1, MTHFD2 recombinant human enzyme (Homo sapiens, UniProt P13995); assay: MTHFD2 inhibition assay (NAD(P)H-Glo luminescence); details: for MTHFD1/MTHFD2 IC50 ratio: selectivity of MTHFD2 inhibition over MTHFD1, band
T1 sequence (P13995 36-350): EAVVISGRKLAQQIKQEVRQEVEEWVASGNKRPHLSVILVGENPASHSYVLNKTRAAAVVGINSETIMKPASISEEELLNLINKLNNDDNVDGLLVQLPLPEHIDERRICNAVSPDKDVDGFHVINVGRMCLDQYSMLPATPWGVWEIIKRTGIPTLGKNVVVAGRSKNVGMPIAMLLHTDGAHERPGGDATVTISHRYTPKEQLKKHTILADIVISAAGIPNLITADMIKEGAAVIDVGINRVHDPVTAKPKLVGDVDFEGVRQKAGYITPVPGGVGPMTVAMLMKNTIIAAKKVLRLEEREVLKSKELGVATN

[2] = biological target: T2, MTHFD1 recombinant human enzyme (Homo sapiens, UniProt P11586); assay: MTHFD1 inhibition assay (NAD(P)H-Glo luminescence); details: MTHFD1 IC50, recombinant human enzyme 200 nM, NADP, band
T2 sequence (P11586 2-291 limits assumed): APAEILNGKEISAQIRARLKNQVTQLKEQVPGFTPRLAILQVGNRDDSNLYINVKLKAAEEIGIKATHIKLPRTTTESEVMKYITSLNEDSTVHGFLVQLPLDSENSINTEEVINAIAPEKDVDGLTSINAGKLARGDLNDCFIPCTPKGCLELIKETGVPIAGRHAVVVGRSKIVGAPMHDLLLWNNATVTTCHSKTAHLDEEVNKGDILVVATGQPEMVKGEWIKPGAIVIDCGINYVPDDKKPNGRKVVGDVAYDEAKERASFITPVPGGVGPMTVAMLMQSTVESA

`COC[C@H]1CN(c2cc(C)c3c4c(c(=O)oc3c2C)CN(C(=O)c2ccc(C(=O)NS(=O)(=O)N3CCCC3)c(OC(F)(F)F)c2F)CC4)CCN1C` [Example 169, (R)-3-fluoro-4-(8-(3-(methoxymethyl)-4-methylpiperazin-1-yl)-7,10-dimethyl-5-oxo-1,3,4,5-tetrahydro-2H-chromeno[3,4-c]pyridine-3-carbonyl)-N-(pyrrolidin-1-ylsulfonyl)-2-(trifluoromethoxy)benzamide] was tested, and the IC50 (human CD4+ T cells) was 100 to 1000 nM, the IC50 [1] was 10 to 100 nM and the “MTHFD1/MTHFD2 IC50 ratio” value [1] was “H (>9.0 to 30)”. For the same compound, the IC50 [2] was 100 to 1000 nM.

For `CCOc1cc(C(=O)N2CCc3c(c(=O)oc4c(C)c(N5CCN(C)[C@@H](COC)C5)cc(C)c34)C2)c(F)cc1C(=O)NS(=O)(=O)N(C1CC1)C1CC1` [Example 216, (R)-N-(N,N-dicyclopropylsulfamoyl)-2-ethoxy-5-fluoro-4-(8-(3-(methoxymethyl)-4-methylpiperazin-1-yl)-7,10-dimethyl-5-oxo-1,3,4,5-tetrahydro-2H-chromeno[3,4-c]pyridine-3-carbonyl)benzamide], the IC50 (human CD4+ T cells) was 10 to 30 nM, the IC50 [1] was 10 to 100 nM and the “MTHFD1/MTHFD2 IC50 ratio” value [1] was “G (^ 3 to 9.0)”. For the same compound, the IC50 [2] was 100 to 1000 nM.

In the case of `COC[C@H]1CN(c2cc(C)c3c4c(c(=O)oc3c2C)CN(C(=O)c2ccc(C(=O)NS(=O)(=O)N3CCCC3)cc2)CC4)CCN1C` [Example 195, (R)-4-(8-(3-(methoxymethyl)-4-methylpiperazin-1-yl)-7,10-dimethyl-5-oxo-1,3,4,5-tetrahydro-2H-chromeno[3,4-c]pyridine-3-carbonyl)-N-(pyrrolidin-1-ylsulfonyl)benzamide], the IC50 (human CD4+ T cells) is reported as 1000 to 5000 nM, the IC50 [1] is reported as 10 to 100 nM and the “MTHFD1/MTHFD2 IC50 ratio” value [1] is reported as “J (>30)”. For the same compound, the IC50 [2] was 1000 to 5000 nM.

`[2H]C([2H])([2H])Oc1cc(C(=O)N2CCc3c(c(=O)oc4c(C)c(N5CCN(C)[C@@H](COC)C5)cc(Cl)c34)C2)c(F)cc1C(=O)NS(=O)(=O)N1CC2CC2C1` (stereo partly drawn) [Example 327, N-((3-azabicyclo[3.1.0]hexan-3-yl)sulfonyl)-4-(10-chloro-8-((R)-3-(methoxymethyl)-4-methylpiperazin-1-yl)-7-methyl-5-oxo-1,3,4,5-tetrahydro-2H-chromeno[3,4-c]pyridine-3-carbonyl)-5-fluoro-2-(methoxy-d3)benzamide] was tested, and the IC50 (human CD4+ T cells) was 100 to 1000 nM, the IC50 [1] was 1 to 10 nM and the “MTHFD1/MTHFD2 IC50 ratio” value [1] was “J (>30)”. For the same compound, the IC50 [2] was 100 to 1000 nM.

`CCOc1cc(C(=O)N2CCc3c(c(=O)oc4c(C)c(N5CCN(C)[C@@H](COC)C5)cc(C)c34)C2)c(F)cc1C(=O)NS(=O)(=O)N1CCCC1` [Example 202, (R)-2-ethoxy-5-fluoro-4-(8-(3-(methoxymethyl)-4-methylpiperazin-1-yl)-7,10-dimethyl-5-oxo-1,3,4,5-tetrahydro-2H-chromeno[3,4-c]pyridine-3-carbonyl)-N-(pyrrolidin-1-ylsulfonyl)benzamide] was tested, and the IC50 (human CD4+ T cells) was 10 to 30 nM, the IC50 [1] was 10 to 100 nM and the “MTHFD1/MTHFD2 IC50 ratio” value [1] was “H (>9.0 to 30)”. The IC50 [2] was 100 to 1000 nM.

`COC[C@H]1CN(c2cc(C)c3c4c(c(=O)oc3c2C)CN(C(=O)c2cc(OC)c(C(=O)NS(=O)(=O)N3C5CCC3CC5)cc2F)CC4)CCN1C` [Example 248, (R)-N-((7-azabicyclo[2.2.1]heptan-7-yl)sulfonyl)-5-fluoro-2-methoxy-4-(8-(3-(methoxymethyl)-4-methylpiperazin-1-yl)-7,10-dimethyl-5-oxo-1,3,4,5-tetrahydro-2H-chromeno[3,4-c]pyridine-3-carbonyl)benzamide] was tested, and the IC50 (human CD4+ T cells) was 30 to 100 nM, the IC50 [1] was 1 to 10 nM and the “MTHFD1/MTHFD2 IC50 ratio” value [1] was “J (>30)”. It also gave an IC50 [2] of 100 to 1000 nM.

With `COC[C@H]1CN(c2cc(Cl)c3c4c(c(=O)oc3c2C)CN(C(=O)c2cc(N(C)C)c(C(=O)NS(=O)(=O)N3CC[C@@H](F)C3)cc2F)CC4)CCN1C` [Example 303, 4-(10-chloro-8-((R)-3-(methoxymethyl)-4-methylpiperazin-1-yl)-7-methyl-5-oxo-1,3,4,5-tetrahydro-2H-chromeno[3,4-c]pyridine-3-carbonyl)-2-(dimethylamino)-5-fluoro-N-(((R)-3-fluoropyrrolidin-1-yl)sulfonyl)benzamide] the IC50 (human CD4+ T cells) was 10 to 30 nM, the IC50 [1] was 1 to 10 nM and the “MTHFD1/MTHFD2 IC50 ratio” value [1] was “J (>30)”. The IC50 [2] was 100 to 1000 nM.

With `COC[C@H]1CN(c2cc(C)c3c4c(c(=O)oc3c2C)CN(C(=O)c2ccc(C(=O)NS(=O)(=O)N3CCC5(CC3)CC5)c(OC)c2F)CC4)CCN1C` [Example 155, (R)-N-((6-azaspiro[2.5]octan-6-yl)sulfonyl)-3-fluoro-2-methoxy-4-(8-(3-(methoxymethyl)-4-methylpiperazin-1-yl)-7,10-dimethyl-5-oxo-1,3,4,5-tetrahydro-2H-chromeno[3,4-c]pyridine-3-carbonyl)benzamide] the IC50 (human CD4+ T cells) was 10 to 30 nM, the IC50 [1] was 10 to 100 nM and the IC50 [2] was 100 to 1000 nM.

For `COC[C@H]1CN(c2cc(C)c3c4c(c(=O)oc3c2C)CN(C(=O)c2cc(OC3CC3)c(C(=O)NS(=O)(=O)N3CC5CC5C3)cc2F)CC4)CCN1C` (stereo partly drawn) [Example 264, N-((3-azabicyclo[3.1.0]hexan-3-yl)sulfonyl)-2-cyclopropoxy-5-fluoro-4-(8-((R)-3-(methoxymethyl)-4-methylpiperazin-1-yl)-7,10-dimethyl-5-oxo-1,3,4,5-tetrahydro-2H-chromeno[3,4-c]pyridine-3-carbonyl)benzamide], the IC50 (human CD4+ T cells) was 10 to 30 nM, the IC50 [1] was 1 to 10 nM and the “MTHFD1/MTHFD2 IC50 ratio” value [1] was “J (>30)”. For the same compound, the IC50 [2] was 10 to 100 nM.

`COC[C@H]1CN(c2cc(C)c3c4c(c(=O)oc3c2C)CN(C(=O)c2cc(N(C)C)c(C(=O)NS(=O)(=O)N3C5CCC3CC5)cc2Cl)CC4)CCN1C` [Example 193, (R)-N-((7-azabicyclo[2.2.1]heptan-7-yl)sulfonyl)-5-chloro-2-(dimethylamino)-4-(8-(3-(methoxymethyl)-4-methylpiperazin-1-yl)-7,10-dimethyl-5-oxo-1,3,4,5-tetrahydro-2H-chromeno[3,4-c]pyridine-3-carbonyl)benzamide] was tested, and the IC50 (human CD4+ T cells) was 30 to 100 nM, the IC50 [1] was 10 to 100 nM and the “MTHFD1/MTHFD2 IC50 ratio” value [1] was “J (>30)”. For the same compound, the IC50 [2] was 1000 to 5000 nM.

`CCOc1cc(C(=O)N2CCc3c(c(=O)oc4c(C)c(N5CCN(C)[C@@H](COC)C5)cc(CC)c34)C2)c(F)cc1C(=O)NS(=O)(=O)N1CCCC1` [Example 244, (R)-2-ethoxy-4-(10-ethyl-8-(3-(methoxymethyl)-4-methylpiperazin-1-yl)-7-methyl-5-oxo-1,3,4,5-tetrahydro-2H-chromeno[3,4-c]pyridine-3-carbonyl)-5-fluoro-N-(pyrrolidin-1-ylsulfonyl)benzamide] was tested, and the IC50 (human CD4+ T cells) was 100 to 1000 nM, the IC50 [1] was 10 to 100 nM and the “MTHFD1/MTHFD2 IC50 ratio” value [1] was “J (>30)”. For the same compound, the IC50 [2] was 100 to 1000 nM.

`COC[C@H]1CN(c2cc(Cl)c3c4c(c(=O)oc3c2C)CN(C(=O)c2cc(N(C)C)c(C(=O)NS(=O)(=O)N3C[C@H]5C[C@@H]3CO5)cc2F)CC4)CCN1C` [Example 294, N-(((1R,4R)-2-oxa-5-azabicyclo[2.2.1]heptan-5-yl)sulfonyl)-4-(10-chloro-8-((R)-3-(methoxymethyl)-4-methylpiperazin-1-yl)-7-methyl-5-oxo-1,3,4,5-tetrahydro-2H-chromeno[3,4-c]pyridine-3-carbonyl)-2-(dimethylamino)-5-fluorobenzamide] was tested, and the IC50 (human CD4+ T cells) was 10 to 30 nM, the IC50 [1] was 10 to 100 nM and the “MTHFD1/MTHFD2 IC50 ratio” value [1] was “J (>30)”. For the same compound, the IC50 [2] was 100 to 1000 nM.

For `COC[C@H]1CN(c2cc(Cl)c3c4c(c(=O)oc3c2C)CN(C(=O)c2cc(N(C)C)c(C(=O)NS(=O)(=O)N3CC[C@H](F)C3)cc2F)CC4)CCN1C` [Example 302, 4-(10-chloro-8-((R)-3-(methoxymethyl)-4-methylpiperazin-1-yl)-7-methyl-5-oxo-1,3,4,5-tetrahydro-2H-chromeno[3,4-c]pyridine-3-carbonyl)-2-(dimethylamino)-5-fluoro-N-(((S)-3-fluoropyrrolidin-1-yl)sulfonyl)benzamide], the IC50 (human CD4+ T cells) was 10 to 30 nM, the IC50 [1] was 10 to 100 nM and the “MTHFD1/MTHFD2 IC50 ratio” value [1] was “J (>30)”. It also gave an IC50 [2] of 100 to 1000 nM.

In the case of `COC[C@H]1CN(c2cc(C)c3c4c(c(=O)oc3c2C)CN(C(=O)c2ccc(C(=O)NS(=O)(=O)N(C)C)c(N3CCC[C@H]3C)c2)CC4)CCN1C` [Example 102, N-(N,N-dimethylsulfamoyl)-4-(8-((R)-3-(methoxymethyl)-4-methylpiperazin-1-yl)-7,10-dimethyl-5-oxo-1,3,4,5-tetrahydro-2H-chromeno[3,4-c]pyridine-3-carbonyl)-2-((R)-2-methylpyrrolidin-1-yl)benzamide], the IC50 [1] is reported as 10 to 100 nM, the “MTHFD1/MTHFD2 IC50 ratio” value [1] is reported as “F (<3)” and the IC50 [2] is reported as 10 to 100 nM.

`COC[C@H]1CN(c2cc(C)c3c4c(c(=O)oc3c2C)CN(C(=O)c2ccc(C(=O)NS(=O)(=O)C3(C)CC3)c(N3CCC3)c2)CC4)CCN1C` [Example 91, (R)-2-(azetidin-1-yl)-4-(8-(3-(methoxymethyl)-4-methylpiperazin-1-yl)-7,10-dimethyl-5-oxo-1,3,4,5-tetrahydro-2H-chromeno[3,4-c]pyridine-3-carbonyl)-N-((1-methylcyclopropyl)sulfonyl)benzamide] was tested, and the IC50 [1] was 1 to 10 nM, the “MTHFD1/MTHFD2 IC50 ratio” value [1] was “G (^ 3 to 9.0)” and the IC50 [2] was 1 to 10 nM.
